In patent publication US20220160703A1, “TUMOR-SELECTIVE COMBINATION THERAPY” (The Board of Regents of The University of Texas System, priority 2019, published 2022):

Key:
[1] = tested on: MC38 tumor; experiment: MC38 subcutaneous syngeneic tumor model; format: in vivo, mice
Experimental: (FIG. 1A) NQO1 positive tumor cell lines MC38, TC-1 and Ag104Ld and NQO1 negative cell lines Panc02 and B16 grown in 48-well plates were treated with β-lap (0-8 μM) for a 3 hr followed by washing and replacing medium. Cell viability was determined by Sulforhodamine B (SRB) Assay 4 days later. […] (FIG. 1C) MC38 cells with CRISPR-based NQO1 Knockout (MC38 NQO1KO #5) planted in 96-well plates were exposed to β-lap for 3 hr and cell survival was assessed 48 hr later. […] (FIG. 1E) MC38 cells were exposed to a lethal dose of β-lap (4 μM) for indicated times, then stained with 7-AAD and Annexin V followed by flow cytometry analysis. […] (FIG. 1H) MC38 and B16 NQO1 #1 cells were exposed to β-lap for a 3 hr. Catalase (1000 U/ml) was added and cell survival was assessed 48 hr later. (FIG. 1I) C57BL/6 mice (n=5/group) were transplanted with MC38 cells and treated with β-lap (0.03 mg, 0.1 mg or 0.3 mg, intratumorally; or 25 mg/kg, i.v.) every other day for four times. (FIG. 1J) C57BL/6 mice were transplanted with MC38 cells (NQO1 WT or KO, n=5/group) and treated with β-lap (0.3 mg, i.t.) every other day for four times. Tumor growth was monitored twice a week.
(FIG. 2A) MC38 cells were subcutaneously transplanted into C57BL/6 WT (n=5-6/group) and Rag1 KO mice (n=5/group), respectively. Tumor bearing mice were treated with β-lap (0.3 mg, i.t.) every other day for four times. […] (FIG. 2B) MC38 tumor bearing C57BL/6 mice (n=5/group) were treated with β-lap (0.3 mg, i.t.) every other day for four times. For CD8^+ T cell depletion, 200 μg of anti-CD8 antibodies were intraperitoneally injected four times at three days interval during the treatment. (FIG. 2C) TC-1 tumor bearing C57BL/6 mice (n=4-5/group) were treated with β-lap (0.1 mg, i.t.) for four times with or without anti-CD8 antibodies. […] (FIG. 2E) 2×10^6 A549 cells were subcutaneously injected into C57BL/6 Rag1^−/− mice (n=5/group for vehicle and β-lap; n=7/group for vehicle+OT-1 and β-lap+OT-1). 30 days later, the mice were i.v. adoptively transfected with 2×10^6 lymph node cells from OT-1 transgenic mice. On the following day, tumor-bearing mice were intratumorally treated with β-lap (0.2 mg) every other day for 4 times. (FIG. 2F) A549 cells were subcutaneously injected into NSG-SGM3 (n=5/group) or NSG-SGM3 harboring human CD34^+ hematopoietic stem cells (n=5/group for Hu-NSG vehicle; n=6/group for Hu-NSG β-lap). Tumor bearing mice were treated with β-lap (0.2 mg, i.t.) every other day for four times. Tumor growth was measured twice a week.
(FIG. 6A) Treatment schema for local β-lap treatment based combinative therapy in FIG. 6B and FIG. 6C. (FIGS. 6B-C) MC38 tumor cells were s.c. inoculated into the flank of C57BL/6 mice (n=5/group). Mice bearing small tumor (about 50 mm^3, B) or advanced tumor (about 150-200 mm^3, FIG. 6C) were locally treated with β-lap (0.3 mg, i.t.) for four times with or without anti-PD-L1 based checkpoint blockage.

[2] = tested on: MC38-OVA cells; experiment: Prophylactic tumor vaccination with β-lap-induced dying MC38-OVA cells; format: in vivo, mice; settings: β-lap-induced dying MC38-OVA cells s.c., rechallenge after 7 days
From the text: (FIG. 5B) The research schema for in vivo cross-presentation of tumor specific antigen from β-lap-induced dying tumor cells in FIG. 5C and FIG. 5D. (FIGS. 5C-D) Live or β-lap-induced dying MC38-OVA cells were subcutaneously inoculated into the flank of WT or Tlr4^−/− C57BL/6 (n=3-4/group) mice along with or without anti-HMGB1 antibody. 5 days later, the tumor drain lymph mode cells were collected and re-stimulated with OVA protein, OT-1 peptide or irradiated MC38-OVA cells for 48 hr. IFNγ producing cells were determined by ELISPOTs assay (FIG. 5C), and IFNγ secretion level was quantified by CBA mouse IFNγ assay (FIG. 5D). (FIG. 5E) The research schema for the immunogenic vaccine assay in FIG. 5F. (FIG. 5F) MC38-OVA cells treated with β-lap in vitro were inoculated s.c. along with or without anti-HMGB1 antibody into the flank of C57BL/6 mice (n=5-7/group). […] Data are shown as mean±SEM from at least two to three independent experiments. *P<0.05, **P<0.01, and ***P<0.001 determined by two-way ANOVA (FIG. 5C and FIG. 5D) or log-rank test (FIG. 5F).
The numbers of tumor antigen-specific T cells (FIG. 5C) and IFNγ production (FIG. 5D) in TdLN were determined; (ii) C57BL/6 mice that received vaccination with β-lap-induced dying MC38-OVA cells in the presence of anti-HMGB1Ab were rechallanged with MC38-OVA for evaluation of the antitumor protection (FIGS. 5E-F). […]

[3] = tested on: IFNα/β; experiment: Type I IFN and cytokine expression in tumor tissue (ELISA, PCR); format: in vivo, mice; settings: MC38-OVA, β-lap 0.3 mg i.t. two times, six days later
Experimental: FIGS. 19A-C (related to FIGS. 4A-F). TLR4/MyD88 pathway but not TLR9 signaling is required for the antitumor effect of β-lap. (FIGS. 19A-B) MC38-OVA bearing mice were treated with β-lap (0.3 mg, i.t.) for two times. Six days later, tumor tissues were collected for both single cell digestion (FIG. 19A) and RNA extraction (FIG. 19B). (FIG. 19A) The secreted IFNβ from the suspended cell supernatant was measured by ELISA after a 24 hr culture. (FIG. 19B) The mRNA levels of IFNα1, IFNγ, TNFα and CXCL10 were determined by real-time PCR assay. (FIG. 19C) MC38 cells were implanted into Myd88^−/−, Tlr4^−/− and Tlr9^−/− C57BL/6 mice, respectively. Tumor bearing mice were then treated with β-lap (0.3 mg, i.t.) every other day for four times. Tumor growth was monitored twice a week. Data are shown as mean±SEM. *P<0.05, **P<0.01, ***P<0.001 determined by unpaired t-test. FIGS. 25A-E. IB-DNQ induces tumor ICD and dendritic cell-mediated T cell cross-priming. (FIG. 25A) The levels of HMGB1 released into cell culture supernatant after IB-DNQ treatment. MC38, MC38 NOQ1^−/−, B16, and B16 NOQ1^+ cells were treated with IB-DNQ for 4 h followed by replacing medium and growth for 24 h, culture supernatant was collected and HMGB1 levels were determined by ELISA. (FIGS. 25B-C) Relative expression of IFN-α and IFN-β. […]

[4] = Methemoglobinemia and weight loss; format: in vivo; settings: MC38 tumor bearing mice, 10 Gy + β-lap

CC1(C)CCC2=C(O1)c1ccccc1C(=O)C2=O [β-lap, β-lapachone]
re-challenge of cured mice ([1]; 3×10^6 MC38 cells, 30 days after complete rejection): rejected the re-challenged tumors | therapeutic activity in immune-deficient mice ([1]; Rag1 KO C57BL/6 mice, 0.3 mg i.t. four times): lost therapeutic activity | TGI ([1]; large established tumors (about 150-200 mm^3), β-lap 15 mg/kg i.t. four times, anti-PD-L1 100 μg i.p. three times): 59.36% | Tumor growth inhibition rate (TGI) ([1]; local (intratumoral) β-lap 1.5 mg/kg mg, every other day 4 doses): 11.8% | Tumor growth inhibition rate (TGI) ([1]; local (intratumoral) β-lap 5 mg/kg, every other day 4 doses): 69.4% | Tumor growth inhibition rate (TGI) ([1]; local (intratumoral) β-lap 15 mg/kg mg, every other day 4 doses): 89.3% | Tumor growth inhibition rate (TGI) ([1]; systemic β-lap 25 mg/kg i.v., every other day four times): 62.5% | antitumor effect with CD8+ T cell depletion ([1]; β-lap 0.3 mg i.t. + anti-CD8 200 μg): abolished β-lap's antitumor effect | response with macrophage depletion ([1]; β-lap 0.3 mg i.t. + anti-CSF1R Ab 100 μg i.t.): did not affect the response | therapeutic effect with type I IFN blockade ([1]; β-lap 0.3 mg i.t. + anti-IFNAR1 150 μg i.t.): significantly diminished the therapeutic effect | therapeutic effect in Batf3−/− mice ([1]; β-lap 0.3 mg i.t. four times): no therapeutic effect | tumor regression in Myd88−/− mice ([1]; β-lap 0.3 mg i.t. four times): disappeared | growth of re-challenged tumor after immunization [2]: prevented the growth of the re-challenged tumor | IFNα/β, CXCL10, IFNγ and TNFα in treated tumors [3]: upregulated | methemoglobinemia or weight loss [4]: no significant methemoglobinemia or weight loss
